Source: US20110124719A1, “COMPOSITION FOR PROMOTING PRODUCTION OF HYALURONIC ACID CONTAINING KAEMPFEROL AND QUERCETIN” (Amorepacific Corporation, priority 2004, published 2011)

Columns and labels:
Format in all cases: cell-based, human
[1] = test system: hyaluronan synthase 3 (HAS3); experiment: Quantitative reverse transcription PCR of HAS3 mRNA in HaCaT cells; conditions: 24 hours
Description: In order to examine an effect of increasing an expression of a HAS gene by kaempferol and quercetin in HaCaT which is a skin cell line of human epidermis, HaCaT cells were respectively treated with kaempferol and quercetin in several concentrations, then the HAS gene was subject to quantitative reverse transcription PCR so as to examine an expression of the HAS gene in a level of mRNA and thus changes of the HAS genes by kaempferol and quercetin were examined as follows. Human keratinocyte cell line, HaCaT cell, which was spontaneously immortalized, was used and obtained from Dr. N. E. Fusenig (Deutsches Krebsforschungszentrum (DKFZ), Heidelberg, Germany). Firstly, the cells were cultured in a Dulbecco's modified Eagle's media (DMEM) containing 10% fetal bovine serum (HyClone), sodium bicarbonate 3.6 g/l and antibody (streptomycin 100 μg and penicillin 100 IU/l) (Life Technologies, Inc.) under proper culture conditions (37° C., 5% CO2, 95% air). […] A control group was diluted in a ratio of 1:1,000 and cultured in a medium supplemented with vehicle (dimethylsulfoxide, DMSO). It was not observed any effects of DMSO influencing on growth and differentiation in the control group culture. The HaCaT cells cultured in the experimental example 1-1 were cleaned two times with a phosphate-buffered saline (Life Technologies, Inc.) and RNAs of all cells were separated using a trizol reagent (GibcoBRL Life Technologies, Grand Island, N.Y.) according to manufacturer's instructions. A concentration of RNA was measured with a spectrophotometry method and a quality of RNA was checked with an agarose gel electrophoresis. It was examined through a quantitative reverse transcription PCR kaempferol and quercetin's influences on mRNA synthesis of hyaluronan synthase 1 (NAS1), hyaluronan synthase 2 (HAS2) and hyaluronan synthase 3 (HAS3), which are isoforms of hyaluronic acid synthase, as follows. Firstly, a RNA prepared and quantified in the above experimental example 1-2 was subject to a reverse transcription and then it was performed a quantitative PCR under the presence of primers specific for HAS1, HAS2 and HAS3 which are isoforms of hyaluronic acid synthase. […]

HaCaT cells [2] = experiment: MTT assay of cytotoxicity in HaCaT cells; conditions: 24 hours
Method: In order to examine cytotoxicity of kaempferol and quercetin in HaCaT, which is a skin cell line of human epidermis, according to the concentrations thereof, HaCaT was treated with kaempferol and quercetin in several concentrations and then degrees of cytotoxicity were quantified through a MTT assay.
HaCaT of human keratinocyte cell line, which was spontaneously immortalized, was used and obtained from Dr. N. E. Fusenig (Deutsches Krebsforschungszentrum (DKFZ), Heidelberg, Germany). The cells were cultured in a Dulbecco's modified Eagle's media (DMEM) containing 10% fetal bovine serum (HyClone), sodium bicarbonate 3.6 g/l and antibody (streptomycin 100 μg and penicillin 100 IU/l) (Life Technologies, Inc.) under proper culture conditions (37° C., 5% CO2, 95% air). The medium was replaced every three days and the cells were secondary-cultured in a division ratio of 1:5 as soon as the density thereof reached the highest. 1×10^4 cells per well of a tissue culture flask 96 well plate were aliquot 72 hours before the cells were treated with kaempferol or quercetin, and then cultured in a medium containing 10% fetal bovine serum for 48 hours. Then, the cells were cultured for 24 hours in a serum-free medium, treated with kaempferol and quercetin in concentrations of 0.1 μM, 1 μM and 10 μM, respectively and then cultured for 24 hours. A control group was diluted in a ratio of 1:1,000 and cultured in a medium supplemented with vehicle (dimethylsulfoxide, DMSO).
(§1) A significance was considered, based on p=0.05 and data was shown with mean±standard error.

HaCaT cells [3] = experiment: HA-ELISA of hyaluronic acid discharged into culture medium of HaCaT cells; conditions: 24 hours
Method: Firstly, the cells were cultured in a Dulbecco's modified Eagle's media (DMEM) containing 10% fetal bovine serum (HyClone), sodium bicarbonate 3.6 g/l and antibody (streptomycin 100 μg and penicillin 100 IU/l) (Life Technologies, Inc.) under proper culture conditions (37° C., 5% CO2, 95% air). The medium was replaced every three days and the cells were secondary-cultured in a division ratio of 1:5 as soon as the density thereof reached the highest. 1×10^5 cells per 75 cm^2 of a tissue culture flask were aliquot 72 hours before the cell were treated with kaempferol or quercetin, and then cultured in a medium containing 10% fetal bovine serum for 48 hours. Then, the cells were cultured in a serum-free medium for 24 hours, treated with kaempferol and quercetin in concentrations of […], 1 μM and 10 μM, respectively and then cultured for 24 hours. A control group was diluted in a ratio of 1:1,000 and cultured in a medium supplemented with vehicle (dimethylsulfoxide, DMSO).
In order to examine that a production of hyaluronic acid was actually promoted by kaempferol and quercetin, a culture medium of HaCaT cell, which is a skin cell line of human epidermis was treated with kaempferol and quercetin, in several concentrations. After that, an amount of hyaluronic acid that synthesis of hyaluronic acid is promoted and then the acid is discharged into the medium was quantified using HA-ELISA Kit.
To perform the ELISA, it was purchased a Hyaluronan Enzyme-Linked ImmunoSorbent Assay Kit (HA-ELISA, Product No.: K-1200) available from Echelon company. The medium recovered through the above cell cultivation was subject to the HA-ELISA Kit according to manufacturer's instructions, thereby quantifying the synthesis amount of hyaluronic acid that was synthesized in HaCaT cell by kaempferol and quercetin and then discharged into the medium. The control group was diluted in a ratio of 1:1,000 and then cultured in a medium supplemented with vehicle (dimethylsulfoxide, DMSO).
as §1

[4] = test system: hyaluronan synthase 2 (HAS2); experiment: Quantitative reverse transcription PCR of HAS2 mRNA in HaCaT cells; conditions: treated 24 hours, expressed in treatment groups as well as the control group
Description: In order to examine an effect of increasing an expression of a HAS gene by kaempferol and quercetin in HaCaT which is a skin cell line of human epidermis, HaCaT cells were respectively treated with kaempferol and quercetin in several concentrations, then the HAS gene was subject to quantitative reverse transcription PCR so as to examine an expression of the HAS gene in a level of mRNA and thus changes of the HAS genes by kaempferol and quercetin were examined as follows. Human keratinocyte cell line, HaCaT cell, which was spontaneously immortalized, was used and obtained from Dr. N. E. Fusenig (Deutsches Krebsforschungszentrum (DKFZ), Heidelberg, Germany). […] A concentration of RNA was measured with a spectrophotometry method and a quality of RNA was checked with an agarose gel electrophoresis. It was examined through a quantitative reverse transcription PCR kaempferol and quercetin's influences on mRNA synthesis of hyaluronan synthase 1 (NAS1), hyaluronan synthase 2 (HAS2) and hyaluronan synthase 3 (HAS3), which are isoforms of hyaluronic acid synthase, as follows. Firstly, a RNA prepared and quantified in the above experimental example 1-2 was subject to a reverse transcription and then it was performed a quantitative PCR under the presence of primers specific for HAS1, HAS2 and HAS3 which are isoforms of hyaluronic acid synthase. […]

O=c1c(O)c(-c2ccc(O)cc2)oc2cc(O)cc(O)c12 [kaempferol, Kaempferol]
HAS3 mRNA expression compared to the control group ([1]; 1 μM): increased | HAS3 mRNA expression compared to the control group ([1]; 10 μM): increased | cytotoxicity compared to the control group (MTT) (HaCaT cells [2]; 0.1 μM): did not exhibit cytotoxicity | cytotoxicity compared to the control group (MTT) (HaCaT cells [2]; 1 μM): did not exhibit cytotoxicity | cytotoxicity compared to the control group (MTT) (HaCaT cells [2]; 10 μM): did not exhibit cytotoxicity | increase of hyaluronic acid synthesis compared to the control group (HaCaT cells [3]; 1 μM): 7% | increase of hyaluronic acid synthesis compared to the control group (HaCaT cells [3]; 10 μM): 8% | expression of HAS2 hyaluronic acid synthase gene (mRNA) [4]: expressed

O=c1c(O)c(-c2ccc(O)c(O)c2)oc2cc(O)cc(O)c12 [quercetin]
HAS3 mRNA expression compared to the control group ([1]; 1 μM): increased | HAS3 mRNA expression compared to the control group ([1]; 10 μM): increased | cytotoxicity compared to the control group (MTT) (HaCaT cells [2]; 0.1 μM): did not exhibit cytotoxicity | cytotoxicity compared to the control group (MTT) (HaCaT cells [2]; 1 μM): did not exhibit cytotoxicity | cytotoxicity compared to the control group (MTT) (HaCaT cells [2]; 10 μM): did not exhibit cytotoxicity | increase of hyaluronic acid synthesis compared to the control group (HaCaT cells [3]; 1 μM): 11% | increase of hyaluronic acid synthesis compared to the control group (HaCaT cells [3]; 10 μM): 24% | expression of HAS2 hyaluronic acid synthase gene (mRNA) [4]: expressed
